Measurements: patent US6869964B2, “Heterocyclicsulfonamide hepatitis C virus inhibitors” (Bristol-Myers Squibb Company, priority 2002, dated 2005)
pEC50, pIC50: −log10 of the molar value.

Columns and labels:
[1] = test system: HCV replicon in Huh7 cells; test: HCV replicon cell-based assay (FRET); parameters: species or system HCV strain 1B; settings: Hepatitis C virus, Huh-7; replicon, activity range; read-out: EC50 a, b, c (Activity Table)
Excerpt: HCV Replicon Cell-based Assay
An HCV replicon whole cell system was established as described by Lohmann V, Korner F, Koch J, Herian U, Theilmann L, Bartenschlager R., Science 285(5424): 110-3 (1999). This system enabled us to evaluate the effects of our HCV Protease compounds on HICV RNA replication. Briefly, using the HCV strain 1B sequence described in the Lohmann paper (Assession number: AJ238799), an HCV cDNA was generated encoding the 5′ internal ribosome entry site (IRES), the neomycin resistance gene, the EMCV (encephalomyocarditis virus)-IRES and the HCV nonstructural proteins, NS3-NS5B, and 3′ non-translated region (NTR). In vitro transcripts of the cDNA were transfected into the human hepatoma cell line, Huh7. […] Resulting cell lines were characterized for positive and negative strand RNA production and protein production over time.
Huh7 cells, constitutively expressing the HCV replicon, were grown in Dulbecco's Modified Eagle Media (DMEM) containing 10% Fetal calf serum (FCS) and 1 mg/ml G418 (Gibco-BRL). Cells were seeded the night before (1.5×10^4 cells/well) in 96-well tissue-culture sterile plates. Compound and no compound controls were prepared in DMEM containing 4% FCS, 1:100 Penicillin/Streptomysin, 1:100 L-glutamine and 5% DMSO in the dilution plate (0.5% DMSO final concentration in the assay). Compound/DMSO mixes were added to the cells and incubated for 4 days at 37° C. After 4 days, plates were rinsed thoroughly with Phosphate-Buffered Saline (PBS) (3 times 150 μl). The cells were lysed with 25 μl of a lysis assay reagent containing the FRET peptide (RET S1, as described for the in vitro enzyme assay). The lysis assay reagent was made from 5× cell Luciferase cell culture lysis reagent(Promega #E153A) diluted to 1× with distilled water, NaCl added to 150 mM final, the FRET peptide diluted to 10 μM final from a 2 mM stock in 100% DMSO. The plate was then placed into the Cytofluor 4000 instrument which had been set to 340 nm excitation/490 emission, automatic mode for 21 cycles and the plate read in a kinetic mode. EC50 determinations were carried out as described for the IC50 determinations.

[2] = molecular target: T1, HCV NS3/4A protease complex (BMS strain) (Hepatitis C virus genotype 1a, UniProt P27958, C1454S); test: Recombinant HCV NS3/4A protease complex FRET peptide assay, BMS strain; format: biochemical, HCV genotype 1a; settings: NS3/4A BMS Strain, activity range; read-out: IC50 a, b, c (Activity Table)
T1 construct: HCV NS3/4A protease complex (amino acids 1027 to 1711); inferred from pET21b vector and Ni-NTA purification; made in house; host or cells: Escherichia coli BL21 (DE3), pET21b
T1 sequence (P27958 1027-1657 C1454S): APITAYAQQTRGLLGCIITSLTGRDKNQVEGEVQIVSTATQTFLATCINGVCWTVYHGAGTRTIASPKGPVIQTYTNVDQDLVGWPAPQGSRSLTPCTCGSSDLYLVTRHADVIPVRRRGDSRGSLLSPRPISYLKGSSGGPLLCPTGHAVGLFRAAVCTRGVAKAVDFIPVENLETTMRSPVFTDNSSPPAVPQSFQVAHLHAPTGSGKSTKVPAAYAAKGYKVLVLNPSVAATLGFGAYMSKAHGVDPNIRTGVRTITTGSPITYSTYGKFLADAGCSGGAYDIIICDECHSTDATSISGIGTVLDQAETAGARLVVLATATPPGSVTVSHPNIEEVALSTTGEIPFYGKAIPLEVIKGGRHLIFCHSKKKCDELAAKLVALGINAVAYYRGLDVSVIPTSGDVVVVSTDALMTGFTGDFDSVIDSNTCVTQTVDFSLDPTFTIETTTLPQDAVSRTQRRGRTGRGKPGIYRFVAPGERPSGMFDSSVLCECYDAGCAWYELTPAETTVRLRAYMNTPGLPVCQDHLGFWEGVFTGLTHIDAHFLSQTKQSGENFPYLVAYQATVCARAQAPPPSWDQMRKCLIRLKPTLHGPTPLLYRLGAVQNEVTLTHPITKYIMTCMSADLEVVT
T1 sequence (P27958 1658-1711 partner, looked up, stated change not applied): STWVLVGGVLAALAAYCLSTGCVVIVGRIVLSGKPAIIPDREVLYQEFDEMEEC
Excerpt: Recombinant HCV NS3/4A Protease Complex FRET Peptide Assay
The purpose of this in vitro assay was to measure the inhibition of HCV NS3 protease complexes, derived from the BMS, H77C or J4l6S strains, as described below, by compounds of the present invention. This assay provides an indication of how effective compounds of the present invention would be in inhibiting HCV proteolytic activity.
Serum from an HCV-infected patient was obtained from Dr. T. Wright, San Francisco Hospital. An engineered full-length cDNA template of the HCV genome (BMS strain) was constructed from DNA fragments obtained by reverse transcription-PCR (RT-PCR) of serum RNA and using primers selected on the basis of homology between other genotype la strains. From the determination of the entire genome sequence, a genotype la was assigned to the HCV isolate according to the classification of Simmonds et al. (See P Simmonds, K A Rose, S Graham, S W Chan, F McOmish, B C Dow, E A Follett, P L Yap and H Marsden, J. Clin. Microbiol., 31(6), 1493-1503 (1993)). […] The infectious clones, H77C (1a genotype) and J4 L6S (1b genotype) were obtained from R. Purcell (NIH) and the sequences are published in Genbank (AAB67036, see Yanagi, M., Purcell, R. H., Emerson, S. U. and Bukh, J. Proc. Natl. Acad. Sci. U.S.A. 94(16),8738-8743 (1997); AF054247, see Yanagi, M., St Claire, M., Shapiro, M., Emerson, S. U., Purcell, R. H. and Bukh, J, Virology 244 (1), 161-172. (1998)).
The BMS, H77C and J4 L6S strains were used for production of recombinant NS3/4A protease complexes. DNA encoding the recombinant HCV NS3/4A protease complex (amino acids 1027 to 1711) for these strains were manipulated as described by P. Gallinari et al. (see Gallinari P, Paolini C, Brennan D, Nardi C, Steinkuhler C, De Francesco R. Biochemistry. 38(17):5620-32, (1999)). Briefly, a three-lysine solubilizing tail was added at the 3′-end of the NS4A coding region. The cysteine in the P1 position of the NS4A-NS4B cleavage site (amino acid 1711) was changed to a glycine to avoid the proteolytic cleavage of the lysine tag. Furthermore, a cysteine to serine mutation was introduced by PCR at amino acid position 1454 to prevent the autolytic cleavage in the NS3 helicase domain. The variant DNA fragment was cloned in the pET21b bacterial expression vector (Novagen) and the NS3/4A complex was expressed in Escherichia coli strain BL21 (DE3) (Invitrogen) following the protocol described by P. Gallinari et al. (see Gallinari P, Brennan D, Nardi C, Brunetti M, Tomei L, Steinkuhler C, De Francesco R., J Virol. 72(8):6758-69 (1998)) with modifications. Briefly, NS3/4A expression was induced with 0.5 mM Isopropyl β-D-1-thiogalactopyranoside (IPTG) for 22 hr at 20° C. A typical fermentation (10 L) yielded approximately 80 g of wet cell paste. The cells were resuspended in lysis buffer (10 mL/g) consisting of 25 mM N-(2-Hydroxyethyl)Piperazine-N′-(2-Ethane Sulfonic acid) (HEPES), pH7.5, 20% glycerol, 500 mM Sodium Chloride (NaCl), 0.5% Triton-X100, 1 ug/ml lysozyme, 5 mM Magnesium Chloride (MgCl2), 1 ug/ml DnaseI, 5 mM β-Mercaptoethanol (βME), Protease inhibitor—Ethylenediamine Tetraacetic acid (EDTA) free (Roche), homogenized and incubated for 20 mins at 4° C. The homogenate was sonicated and clarified by ultra-centrifugation at 235000 g for lhr at 4° C. Imidazole was added to the supernatant to a final concentration of 15 mM and the pH adjusted to 8.0. The crude protein extract was loaded on a Nickel—Nitrilotriacetic acid (Ni—NTA) column pre-equilibrated with buffer B (25 mM HEPES, pH8.0, 20% glycerol, 500 mM NaCl, 0.5% Triton-X100, 15 mM imidazole, 5 mM βME). The sample was loaded at a flow rate of 1 mL/min. The column was washed with 15 column volumes of buffer C (same as buffer B except with 0.2% Triton-X100). The protein was eluted with 5 column volumes of buffer D (same as buffer C except with 200 mM Imidazole). […]

Structure (SMILES)	pEC50 [1]	pIC50 [2]
C=CC1C[C@]1(NC(=O)[C@@H]1C[C@@H](Oc2cc(-c3ccccc3)nc3cc(OC)ccc23)CN1C(=O)[C@@H](NC(=O)OC(C)(C)C)C(C)(C)C)C(=O)NS(=O)(=O)c1nnc(NC(C)=O)s1 (stereo in doubt) [Compound 12, {1-[2-[1-(5-Acetylamino-[1,3,4]thiadiazole-2-sulfonylaminocarbonyl)-2-vinylcyclopropylcarbamoyl]-4-(7-methoxy-2-phenyl-quinolin-4-yloxy)-pyrrolidine-1-carbonyl]-2,2-dimethylpropyl}carbamic acid tert-butyl ester]	5.00 to 6.00	6.00 to 7.00
C=CC1C[C@]1(NC(=O)[C@@H]1C[C@@H](Oc2cc(-c3ccccc3)nc3cc(OC)ccc23)CN1C(=O)[C@@H](NC(=O)OC(C)(C)C)C(C)(C)C)C(=O)NS(=O)(=O)c1c(C)noc1C (stereo in doubt) [Compound 14, {1-[2-[1-(3,5-Dimethylisoxazole-4-sulfonylaminocarbonyl)-2-vinyl-cyclopropylcarbamoyl]-4-(7-methoxy-2-phenyl-quinolin-4-yloxy)-pyrrolidine-1-carbonyl]-2,2-dimethyl-propyl}-carbamic acid tert-butyl ester]	6.00 to 7.00	> 7.00
C=CC1C[C@]1(NC(=O)[C@@H]1C[C@@H](Oc2cc(-c3ccccc3)nc3cc(OC)ccc23)CN1C(=O)[C@@H](NC(=O)OC(C)(C)C)C(C)(C)C)C(=O)NS(=O)(=O)c1nc2ccc(OCC)cc2s1 (stereo in doubt) [Compound 15, {1-[2-[1-(6-Ethoxybenzothiazole-2-sulfonylaminocarbonyl)-2-vinyl-cyclopropylcarbamoyl]-4-(7-methoxy-2-phenyl-quinolin-4-yloxy)-pyrrolidine-1-carbonyl]-2,2-dimethylpropyl}-carbamic acid tert-butyl ester]	5.00 to 6.00	6.00 to 7.00
C=CC1C[C@]1(NC(=O)[C@@H]1C[C@@H](Oc2cc(-c3ccccc3)nc3cc(OC)ccc23)CN1C(=O)[C@@H](NC(=O)OC(C)(C)C)C(C)(C)C)C(=O)NS(=O)(=O)c1cc([N+](=O)[O-])c(Cl)s1 (stereo in doubt) [Compound 16, {1-[2-[1-(5-Chloro-4-nitro-thiophene-2-sulfonylaminocarbonyl)-2-vinylcyclopropylcarbamoyl]-4-(7-methoxy-2-phenyl-quinolin-4-yloxy)-pyrrolidine-1-carbonyl]-2,2-dimethyl-propyl}carbamic acid tert-butyl ester]	6.00 to 7.00	> 7.00
C=CC1C[C@]1(NC(=O)[C@@H]1C[C@@H](Oc2cc(-c3ccccc3)nc3cc(OC)ccc23)CN1C(=O)[C@@H](NC(=O)OC(C)(C)C)C(C)(C)C)C(=O)NS(=O)(=O)c1ccc(-c2cc(C(F)(F)F)nn2C)s1 (stereo in doubt) [Compound 17, [1-(4-(7-Methoxy-2-phenyl-quinolin-4-yloxy)-2-{1-[5-(2-methyl-5-trifluoromethyl-2H-pyrazol-3-yl)thiophene-2-sulfonylaminocarbonyl]-2-vinyl-cyclopropylcarbamoyl}-pyrrolidine-1-carbonyl)-2,2-dimethylpropyl]carbamic acid tert-butyl ester]	6.00 to 7.00	> 7.00
C=CC1C[C@]1(NC(=O)[C@@H]1C[C@@H](Oc2cc(-c3ccccc3)nc3cc(OC)ccc23)CN1C(=O)[C@@H](NC(=O)OC(C)(C)C)C(C)(C)C)C(=O)NS(=O)(=O)c1cc(Cl)c(Br)s1 (some centres unmarked) [Compound 6, {-[2-{1-[5-Bromo-4-chlorothiophene-2-sulfonylamino-carbonyl]-2-vinylcyclopropylcarbamoyl}-4-(7-methoxy-2-phenyl-quinolin-4-yloxy)pyrrolidine-1-carbonyl]-2,2-dimethylpropyl}carbarmic acid tert-butyl ester]	6.00 to 7.00	> 7.00
C=CC1C[C@]1(NC(=O)[C@@H]1C[C@@H](Oc2cc(-c3ccccc3)nc3cc(OC)ccc23)CN1C(=O)[C@@H](NC(=O)OC(C)(C)C)C(C)(C)C)C(=O)NS(=O)(=O)c1nc(NC(C)=O)sc1C (some centres unmarked) [Compound 11, {1-[2-{1-[2-Acetylamino-5-methylthiazole-4-sulfonylaminocarbonyl]-2-vinylcyclopropylcarbamoyl}-4-(7-methoxy-2-phenyl-quinolin-4-yloxy)pyrrolidine-1-carbony]-2,2-dimethylpropyl}carbamic acid tert-butyl ester]	5.00 to 6.00	> 7.00
